Results reported in patent publication US7396837B2, “Antitumoral analogs of lamellarins” (Pharma Mar, S.A.U., priority 2002, dated 2008).

Key:
Format in all cases: cell-based
H-MEC-1 = assay: SRB colorimetric cell growth inhibition assay, H-MEC-1; conditions: Homo sapiens, HMEC-1, H-MEC-1
Outline: (§1)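 Growth and viability quantified by sulforhodamine B staining in 96-well microplates. Triplicate wells give mean ± SD; derived endpoints are GI, TGI (cytostatic) and LC (cytotoxic).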

[1] = as above; conditions: human, H-MEC-1 cells, H-MEC-1; LC=cell killing (cytotoxic effect); read-out: LC50 H-MEC-1
Outline: as §1

DU-145 = assay: SRB colorimetric cell growth inhibition assay, DU-145; conditions: Homo sapiens, DU-145, DU-145
Outline: (§2)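 Tested samples remained on human cancer cell cultures throughout the incubation; viable biomass was then stained with SRB and read colorimetrically.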

LNCaP = assay: SRB colorimetric cell growth inhibition assay, LNCaP; conditions: Homo sapiens, LNCaP, LN-caP
Outline: as §2

HT-29 = assay: SRB colorimetric cell growth inhibition assay, HT-29; conditions: Homo sapiens, HT-29, HT-29
Outline: as §2

LoVo-Dox = assay: SRB colorimetric cell growth inhibition assay, LoVo-Dox (MDR); conditions: Homo sapiens, LOVO-DOX
Outline: as §2

LoVo = assay: SRB colorimetric cell growth inhibition assay, LoVo; conditions: Homo sapiens, LoVo
Outline: as §2

IGROV-ET = assay: SRB colorimetric cell growth inhibition assay, IGROV-ET (ET-743 resistant); conditions: Homo sapiens, IGROV-ET
Outline: as §2

PANC-1 = assay: SRB colorimetric cell growth inhibition assay, PANC-1; conditions: Homo sapiens, PANC-1, PANC-1
Outline: as §2

A-549 = assay: SRB colorimetric cell growth inhibition assay, A-549; conditions: Homo sapiens, A549, A-549
Outline: as §2

SKOV-3 = assay: SRB colorimetric cell growth inhibition assay, SKOV-3; conditions: Homo sapiens
Outline: as §1

SK-BR-3 = assay: SRB colorimetric cell growth inhibition assay, SK-BR-3; conditions: Homo sapiens, SK-BR-3, SK-BR-3
Outline: as §2

SK-MEL-28 = assay: SRB colorimetric cell growth inhibition assay, SK-MEL-28; conditions: Homo sapiens, SK-MEL-28, MEL-28
Outline: as §2

IGROV = assay: SRB colorimetric cell growth inhibition assay, IGROV; conditions: Homo sapiens, IGROV
Outline: as §2

K-562 = assay: SRB colorimetric cell growth inhibition assay, K-562; conditions: Homo sapiens, K562, K-562
Outline: as §2

COc1cc2c(cc1OC)-c1c(-c3ccc(OS(C)(=O)=O)c(OC)c3)c3c4cc(OC)c(OS(C)(=O)=O)cc4oc(=O)c3n1CC2 [Compound 92]
GI50 (H-MEC-1; GI=growth inhibition): 14.2 µM
IC (TGI) (H-MEC-1; TGI=total growth inhibition (cytostatic effect), read-out: TGI H-MEC-1): 14.9 µM
CC50 [1]: 14.9 µM
GI50 (DU-145; GI=growth inhibition, read-out: GI50 DU-145): 14.9 µM
CC50 (DU-145; LC=cell killing (cytotoxic effect), read-out: LC50 DU-145): 14.9 µM
IC (TGI) (DU-145; TGI=total growth inhibition (cytostatic effect), read-out: TGI DU-145): 14.9 µM
GI50 (LNCaP; GI=growth inhibition, read-out: GI50 LN-caP): 0.167 µM
CC50 (LNCaP; LC=cell killing (cytotoxic effect), read-out: LC50 LN-caP): 5.09 µM
IC (TGI) (LNCaP; TGI=total growth inhibition (cytostatic effect), read-out: TGI LN-caP): 0.71 µM
GI50 (HT-29; GI=growth inhibition, read-out: GI50 HT-29): 14.9 µM
CC50 (HT-29; LC=cell killing (cytotoxic effect), read-out: LC50 HT-29): 14.9 µM
IC (TGI) (HT-29; TGI=total growth inhibition (cytostatic effect), read-out: TGI HT-29): 14.9 µM
GI50 (LoVo-Dox; GI=growth inhibition, read-out: GI50 LOVO-DOX): 2.14 µM
CC50 (LoVo-Dox; LC=cell killing (cytotoxic effect), read-out: LC50 LOVO-DOX): 14.9 µM
IC (TGI) (LoVo-Dox; TGI=total growth inhibition (cytostatic effect), read-out: TGI LOVO-DOX): 5.96 µM
GI50 (LoVo; GI=growth inhibition, read-out: GI50 LOVO): 7.52 µM
CC50 (LoVo; LC=cell killing (cytotoxic effect), read-out: LC50 LOVO): 14.9 µM
IC (TGI) (LoVo; TGI=total growth inhibition (cytostatic effect), read-out: TGI LOVO): 14.9 µM
GI50 (IGROV-ET; GI=growth inhibition, read-out: GI50 IGROV-ET): 6.85 µM
CC50 (IGROV-ET; LC=cell killing (cytotoxic effect), read-out: LC50 IGROV-ET): 14.9 µM
IC (TGI) (IGROV-ET; TGI=total growth inhibition (cytostatic effect), read-out: TGI IGROV-ET): 14.9 µM
GI50 (PANC-1; GI=growth inhibition, read-out: GI50 PANC-1): 5.42 µM
CC50 (PANC-1; LC=cell killing (cytotoxic effect), read-out: LC50 PANC-1): 14.9 µM
IC (TGI) (PANC-1; TGI=total growth inhibition (cytostatic effect), read-out: TGI PANC-1): 14.9 µM
GI50 (A-549; GI=growth inhibition, read-out: GI50 A-549): 14.9 µM
CC50 (A-549; LC=cell killing (cytotoxic effect), read-out: LC50 A-549): 14.9 µM
IC (TGI) (A-549; TGI=total growth inhibition (cytostatic effect), read-out: TGI A-549): 14.9 µM
GI50 (SKOV-3; SK-OV-3, SKOV-3, GI=growth inhibition, read-out: GI50 SKOV-3): 7.61 µM
CC50 (SKOV-3; SK-OV-3, SKOV-3, LC=cell killing (cytotoxic effect), read-out: LC50 SKOV-3): 14.9 µM
IC (TGI) (SKOV-3; SK-OV-3, SKOV-3, TGI=total growth inhibition (cytostatic effect), read-out: TGI SKOV-3): 14.9 µM
GI50 (SK-BR-3; GI=growth inhibition, read-out: GI50 SK-BR-3): 4.35 µM
CC50 (SK-BR-3; LC=cell killing (cytotoxic effect), read-out: LC50 SK-BR-3): 14.9 µM
IC (TGI) (SK-BR-3; TGI=total growth inhibition (cytostatic effect), read-out: TGI SK-BR-3): 11.6 µM
GI50 (SK-MEL-28; GI=growth inhibition, read-out: GI50 MEL-28): 4.75 µM
CC50 (SK-MEL-28; LC=cell killing (cytotoxic effect), read-out: LC50 MEL-28): 14.9 µM
IC (TGI) (SK-MEL-28; TGI=total growth inhibition (cytostatic effect), read-out: TGI MEL-28): 10.1 µM
GI50 (IGROV; GI=growth inhibition, read-out: GI50 IGROV): 3.13 µM
CC50 (IGROV; LC=cell killing (cytotoxic effect), read-out: LC50 IGROV): 14.1 µM
IC (TGI) (IGROV; TGI=total growth inhibition (cytostatic effect), read-out: TGI IGROV): 6.64 µM
GI50 (K-562; GI=growth inhibition, read-out: GI50 K-562): 2.23 µM
CC50 (K-562; LC=cell killing (cytotoxic effect), read-out: LC50 K-562): 14.9 µM
IC (TGI) (K-562; TGI=total growth inhibition (cytostatic effect), read-out: TGI K-562): 13.8 µM
